Experimental data taken from PubChem BioAssay AID1963863 (Molecular Pharmacology Branch, DTP, NCI, 2024).
pIC50: −log10 of the molar value.

Test system: 931267-113-T-J1-PDC KRAS spheroid with HUVEC/MSC, viability
Experiment: Anticancer human tumor 931267-113-T-J1-PDC patient-derived colon adenocarcinoma cell line growth inhibition [KRAS2]
Settings: for pIC50: curve of first compound; for viability, T/C: stronger effect = lower value
How it was run: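 KRAS-mutant tumor cells were grown as spheroids with HUVEC endothelial cells and human MSCs as stroma. Targeted agents were tested alone and with KRAS pathway inhibitors. Doses started at or near clinical Cmax, or 10 microM, descending half-log.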

[1] = second compound 0.1 µM, first compound 0.01 µM
[2] = second compound 0.1 µM, first compound 0.0316 µM
[3] = second compound 0.1 µM, first compound 0.1 µM
[4] = second compound 0.1 µM, first compound 0.316 µM
[5] = second compound 0.1 µM, first compound 1 µM
[6] = second compound 0.1 µM, first compound 3.16 µM
[7] = second compound 0.316 µM, first compound 0.01 µM
[8] = second compound 0.316 µM, first compound 0.0316 µM
[9] = second compound 0.316 µM, first compound 0.1 µM
[10] = second compound 0.316 µM, first compound 0.316 µM
[11] = second compound 0.316 µM, first compound 1 µM
[12] = second compound 0.316 µM, first compound 3.16 µM
[13] = second compound 1 µM, first compound 0.01 µM
[14] = second compound 1 µM, first compound 0.0316 µM
[15] = second compound 1 µM, first compound 0.1 µM
[16] = second compound 1 µM, first compound 0.316 µM
[17] = second compound 1 µM, first compound 1 µM
[18] = second compound 1 µM, first compound 3.16 µM
[19] = second compound 3.16 µM, first compound 0.01 µM
[20] = second compound 3.16 µM, first compound 0.0316 µM
[21] = second compound 3.16 µM, first compound 0.1 µM
[22] = second compound 3.16 µM, first compound 0.316 µM
[23] = second compound 3.16 µM, first compound 1 µM
[24] = second compound 3.16 µM, first compound 3.16 µM
[25] = second compound 10 µM, first compound 0.01 µM
[26] = second compound 10 µM, first compound 0.0316 µM
[27] = second compound 10 µM, first compound 0.1 µM
[28] = second compound 10 µM, first compound 0.316 µM
[29] = second compound 10 µM, first compound 1 µM
[30] = second compound 10 µM, first compound 3.16 µM
[31] = second compound 0.1 µM, first compound 10 µM
[32] = second compound 0.316 µM, first compound 10 µM
[33] = second compound 1 µM, first compound 10 µM
[34] = second compound 3.16 µM, first compound 10 µM
[35] = second compound 10 µM, first compound 10 µM
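Also: compound exposure lasted 7 days before the readout.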
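For viability, T/C in this document: 100% = DMSO vehicle control viability.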

CC(=O)OC12COC1CC(O)C1(C)C(=O)C(O)C3=C(C)C(OC(=O)C(O)C(NC(=O)OC(C)(C)C)c4ccccc4)CC(O)(C(OC(=O)c4ccccc4)C21)C3(C)C (stereo not given) + CC1OCC2(CCN(c3cnc(Sc4ccnc(N)c4Cl)c(N)n3)CC2)C1N
pIC50 (second compound 0.1 µM): < 5.50 | pIC50 (second compound 0.316 µM): < 5.50 | pIC50 (second compound 1 µM): < 5.50 | pIC50 (second compound 3.16 µM): 6.54 | pIC50 (second compound 10 µM): 6.56 | viability, T/C [1]: 88.4% | viability, T/C [2]: 90.5% | viability, T/C [3]: 74.8% | viability, T/C [4]: 80% | viability, T/C [5]: 86.2% | viability, T/C [6]: 91.4% | viability, T/C [7]: 74.8% | viability, T/C [8]: 90.5% | viability, T/C [9]: 64.9% | viability, T/C [10]: 65.4% | viability, T/C [11]: 78.6% | viability, T/C [12]: 58.5% | viability, T/C [13]: 95.2% | viability, T/C [14]: 111% | viability, T/C [15]: 108% | viability, T/C [16]: 82.8% | viability, T/C [17]: 79.5% | viability, T/C [18]: 93.2% | viability, T/C [19]: 52.3% | viability, T/C [20]: 74.3% | viability, T/C [21]: 53% | viability, T/C [22]: 50.6% | viability, T/C [23]: 48.9% | viability, T/C [24]: 49.7% | viability, T/C [25]: 59% | viability, T/C [26]: 63.4% | viability, T/C [27]: 66.8% | viability, T/C [28]: 38% | viability, T/C [29]: 50.4% | viability, T/C [30]: 56.6%

CN(C)C/C=C/C(=O)Nc1cc2c(Nc3ccc(F)c(Cl)c3)ncnc2cc1O[C@H]1CCOC1 + CC1OCC2(CCN(c3cnc(Sc4ccnc(N)c4Cl)c(N)n3)CC2)C1N
pIC50 (second compound 0.1 µM): < 7.00 | pIC50 (second compound 0.316 µM): < 7.00 | pIC50 (second compound 1 µM): < 7.00 | pIC50 (second compound 3.16 µM): > 9.50 | pIC50 (second compound 10 µM): < 7.00 | viability, T/C (second compound 0.1 µM, first compound 0.000316 µM): 80.6% | viability, T/C (second compound 0.1 µM, first compound 0.001 µM): 77.1% | viability, T/C (second compound 0.1 µM, first compound 0.00316 µM): 58.5% | viability, T/C [1]: 73.5% | viability, T/C [2]: 84.6% | viability, T/C [3]: 69% | viability, T/C (second compound 0.316 µM, first compound 0.000316 µM): 66.8% | viability, T/C (second compound 0.316 µM, first compound 0.001 µM): 70% | viability, T/C (second compound 0.316 µM, first compound 0.00316 µM): 65.5% | viability, T/C [7]: 62.6% | viability, T/C [8]: 67.4% | viability, T/C [9]: 80.4% | viability, T/C (second compound 1 µM, first compound 0.000316 µM): 84.4% | viability, T/C (second compound 1 µM, first compound 0.001 µM): 77.4% | viability, T/C (second compound 1 µM, first compound 0.00316 µM): 77% | viability, T/C [13]: 71.4% | viability, T/C [14]: 93.5% | viability, T/C [15]: 90.8% | viability, T/C (second compound 3.16 µM, first compound 0.000316 µM): 34.6% | viability, T/C (second compound 3.16 µM, first compound 0.001 µM): 48.8% | viability, T/C (second compound 3.16 µM, first compound 0.00316 µM): 49.1% | viability, T/C [19]: 49.6% | viability, T/C [20]: 57.7% | viability, T/C [21]: 49.4% | viability, T/C (second compound 10 µM, first compound 0.000316 µM): 90.2% | viability, T/C (second compound 10 µM, first compound 0.001 µM): 71.6% | viability, T/C (second compound 10 µM, first compound 0.00316 µM): 68.4% | viability, T/C [25]: 71.5% | viability, T/C [26]: 97.1% | viability, T/C [27]: 93.7%

COC(=O)c1ccc2c(C(=Nc3ccc(N(C)C(=O)CN4CCN(C)CC4)cc3)c3ccccc3)c(O)[nH]c2c1 + CC1OCC2(CCN(c3cnc(Sc4ccnc(N)c4Cl)c(N)n3)CC2)C1N
pIC50 (second compound 0.1 µM): 6.15 | pIC50 (second compound 0.316 µM): 6.60 | pIC50 (second compound 1 µM): > 7.50 | pIC50 (second compound 3.16 µM): > 7.50 | pIC50 (second compound 10 µM): > 7.50 | viability, T/C [2]: 69.4% | viability, T/C [3]: 68.6% | viability, T/C [4]: 57.1% | viability, T/C [5]: 44.4% | viability, T/C [6]: 0.37% | viability, T/C [31]: 0.35% | viability, T/C [8]: 63.5% | viability, T/C [9]: 67.5% | viability, T/C [10]: 38.7% | viability, T/C [11]: 34.3% | viability, T/C [12]: 0.32% | viability, T/C [32]: 0.28% | viability, T/C [14]: 51.2% | viability, T/C [15]: 43.6% | viability, T/C [16]: 44% | viability, T/C [17]: 4.05% | viability, T/C [18]: 0.33% | viability, T/C [33]: 0.32% | viability, T/C [20]: 48.1% | viability, T/C [21]: 37% | viability, T/C [22]: 25% | viability, T/C [23]: 2.45% | viability, T/C [24]: 0.48% | viability, T/C [34]: 0.38% | viability, T/C [26]: 37.6% | viability, T/C [27]: 32.4% | viability, T/C [28]: 13.2% | viability, T/C [29]: 0.77% | viability, T/C [30]: 0.35% | viability, T/C [35]: 0.45%

O=C(c1cc(Cc2n[nH]c(=O)c3ccccc23)ccc1F)N1CCN(C(=O)C2CC2)CC1 + CC1OCC2(CCN(c3cnc(Sc4ccnc(N)c4Cl)c(N)n3)CC2)C1N
pIC50 (second compound 0.1 µM): < 5.00 | pIC50 (second compound 0.316 µM): < 5.00 | pIC50 (second compound 1 µM): < 5.00 | pIC50 (second compound 3.16 µM): < 5.00 | pIC50 (second compound 10 µM): 5.50 | viability, T/C [2]: 72.8% | viability, T/C [3]: 70.8% | viability, T/C [4]: 72.9% | viability, T/C [5]: 68.4% | viability, T/C [6]: 81.5% | viability, T/C [31]: 73.5% | viability, T/C [8]: 64.2% | viability, T/C [9]: 72.7% | viability, T/C [10]: 59.1% | viability, T/C [11]: 66.9% | viability, T/C [12]: 54.8% | viability, T/C [32]: 62.4% | viability, T/C [14]: 86.6% | viability, T/C [15]: 89.5% | viability, T/C [16]: 89.1% | viability, T/C [17]: 86% | viability, T/C [18]: 73.3% | viability, T/C [33]: 89.1% | viability, T/C [20]: 56.6% | viability, T/C [21]: 48% | viability, T/C [22]: 52.6% | viability, T/C [23]: 64.6% | viability, T/C [24]: 56.4% | viability, T/C [34]: 50.8% | viability, T/C [26]: 59.9% | viability, T/C [27]: 60.2% | viability, T/C [28]: 99% | viability, T/C [29]: 46% | viability, T/C [30]: 63.9% | viability, T/C [35]: 51.9%
